Experimental data as given in the RepoRT retention time repository.

Test: RP, Waters ACQUITY Premier BEH C18, 100 × 2.1 mm, 1.7 µm, 40 °C, 0.3 to 0.4 mL/min, estimated dead time 0.73 min; A: water + 0.1% formic acid; B: acetonitrile + 0.1% formic acid; gradient (min/%B) 0/0.5 0.1/0.5 10/80 10.1/99.5 12/0.5 12.1/0.5 14.5/0.5
Conditions: stereoisomer not certain
`OCC1OC(Oc2c[nH]c3ccccc23)C(O)C(O)C1O` (stereo not given) showed an LC retention time of 4.43 min. `CCCCCCC(N)C(=O)O` (racemic) [DL-2-AMINOOCTANOIC ACID] gave an LC retention time of 4.04 min. `CC(=O)OC1CC2CCC1(C)C2(C)C` (single isomer, unassigned; (-)) [(-)-BORNYL ACETATE] showed an LC retention time of 7.47 min. In the case of `O=C(OC1Cc2c(O)cc(O)cc2OC1c1cc(O)c(O)c(O)c1)c1cc(O)c(O)c(O)c1` (single isomer, unassigned; (-)) [(-)-EPIGALLOCATECHIN-3-GALLATE], the LC retention time is reported as 3.98 min. In the case of `COc1cc(CC2COC(=O)C2Cc2ccc(O)c(OC)c2)ccc1O` (single isomer, unassigned; (-)) [(-)-MATAIRESINOL], the LC retention time is reported as 6.12 min. In the case of `O=C(O)CC(CC(=O)O)C(=O)O` [1,2,3-PROPANETRICARBOXYLIC ACID], the LC retention time is reported as 2.39 min. `Cn1c(=O)c2c([nH]c(=O)n2C)n(C)c1=O` [1,3,7-TRIMETHYLURIC ACID] gave an LC retention time of 3.23 min. In the case of `O=C1Cc2ccccc2N1` [1,3-DIHYDRO-(2H)-INDOL-2-ONE], the LC retention time is reported as 5.06 min. In the case of `Cn1c(=O)[nH]c2[nH]c(=O)n(C)c2c1=O` [1,7-DIMETHYLURIC ACID], the LC retention time is reported as 2.39 min. With `O=C(O)CCCCCCCCCCCC(=O)O` [1,11-UNDECANEDICARBOXYLATE] the LC retention time was 7.11 min. `C[C@H](O)[C@@H](O)[C@H](O)[C@H](O)CO` [1-DEOXY-D-GLUCITOL] gave an LC retention time of 0.959 min. Compound `O=C(O)c1ccc2ccccc2c1O` [1-HYDROXY-2-NAPHTHOATE] has an LC retention time of 7.32 min. For `Cn1cnc2c(ncn2C2OC(CO)C(O)C2O)c1=N` (stereo not given) [1-METHYLADENOSINE], the LC retention time was 2.05 min. `Cn1c(=O)[nH]c2[nH]c(=O)[nH]c2c1=O` [1-METHYLURIC ACID] gave an LC retention time of 1.21 min. Work on `Cn1c(=O)[nH]c2nc[nH]c2c1=O` [1-METHYLXANTHINE] yielded an LC retention time of 1.42 min. In the case of `O=C(O)c1cccc(O)c1O` [2,3-DIHYDROXYBENZOATE], the LC retention time is reported as 4.71 min. For `O=C(O)c1c(O)cc(O)cc1O` [2,4,6-TRIHYDROXYBENZOIC ACID], the LC retention time was 3.9 min. In the case of `O=[N+]([O-])c1ccc(O)cc1O` [2,4-DIHYDROXY-NITROPHENOL], the LC retention time is reported as 6.02 min. `O=C(O)c1ccc(O)cc1O` [2,4-DIHYDROXYBENZOIC ACID] gave an LC retention time of 4 min. `O=C(O)C(O)CCO` (stereo not given) [2,4-DIHYDROXYBUTANOIC ACID] gave an LC retention time of 1.07 min. For `O=c1[nH]c(=O)c2nccnc2[nH]1` [2,4-DIHYDROXYPTERIDINE], the LC retention time was 3.08 min. For `O=C(O)c1c(O)cccc1O` [2,6-DIHYDROXYBENZOIC ACID], the LC retention time was 4.5 min. In the case of `COc1cccc(OC)c1C(=O)O` [2,6-DIMETHOXYBENZOIC ACID], the LC retention time is reported as 4.71 min. With `CCCCCC(N)C(=O)O` (stereo not given) [2-AMINOHEPTANOATE] the LC retention time was 2.81 min. `CC(C)(N)C(=O)O` [2-AMINOISOBUTYRATE] showed an LC retention time of 0.886 min. Work on `Nc1ccccc1O` [2-AMINOPHENOL] yielded an LC retention time of 1.62 min. Work on `CCC(CO)C(=O)O` (stereo not given) [2-ETHYLHYDRACRYLIC ACID] yielded an LC retention time of 3.81 min. `CSCCC(O)C(=O)O` (stereo not given) [2-HYDROXY-4-(METHYLTHIO)BUTANOATE] gave an LC retention time of 4.06 min. With `CCC(O)C(=O)O` (stereo not given) [2-HYDROXYBUTYRATE] the LC retention time was 2.82 min. Compound `CCCCCCCCCCCCCCC(O)C(=O)O` (stereo not given) [2-HYDROXYHEXADECANOIC ACID] has an LC retention time of 8.98 min. For `CCCCCCCCCCCCC(O)C(=O)O` (stereo not given) [2-HYDROXYMYRISTIC ACID], the LC retention time was 8.3 min. Work on `CCCCC(=O)C(=O)O` [2-KETOHEXANOIC ACID] yielded an LC retention time of 4.8 min. For `COc1cc2c(cc1O)CCC1C2CCC2(C)C(=O)CCC12` (stereo not given) [2-METHOXYESTRONE], the LC retention time was 7.38 min. Work on `Cc1ccccc1C(=O)O` [2-METHYLBENZOIC ACID] yielded an LC retention time of 5.38 min. For `CC(C(=O)O)C(O)(CC(=O)O)C(=O)O` (stereo not given) [2-METHYLCITRATE], the LC retention time was 3.44 min. `CC(CCC(=O)O)C(=O)O` (stereo not given) [2-METHYLGLUTARATE] gave an LC retention time of 4.07 min. `CC(=CC(=O)O)C(=O)O` [2-METHYLMALEATE] gave an LC retention time of 3.29 min. In the case of `CSCCC(=O)C(=O)O` [2-OXO-4-METHYLTHIOBUTANOIC ACID], the LC retention time is reported as 3.7 min. Compound `O=C(O)c1ccc2ccccc2n1` [2-QUINOLINECARBOXYLATE] has an LC retention time of 4.24 min. For `O=C(O)C(O)c1ccc(O)c(O)c1` (stereo not given) [3,4 DIHYDROXYMANDELATE], the LC retention time was 1.62 min. Work on `COc1cc(C=CC(=O)O)cc(OC)c1OC` [3,4,5-TRIMETHOXYCINNAMIC ACID] yielded an LC retention time of 5.7 min. Compound `O=Cc1ccc(O)c(O)c1` [3,4-DIHYDROXYBENZALDEHYDE] has an LC retention time of 3.49 min. `O=C(O)CCc1ccc(O)c(O)c1` [3,4-DIHYDROXYHYDROCINNAMIC ACID] showed an LC retention time of 4.42 min. `OCC(O)c1ccc(O)c(O)c1` (stereo not given) [3,4-DIHYDROXYPHENYLGLYCOL] gave an LC retention time of 1.86 min. `O=C(O)c1cc(O)cc(O)c1` [3,5-DIHYDROXYBENZOIC ACID] showed an LC retention time of 2.21 min.
